Target: Nicotinamide phosphoribosyltransferase (Homo sapiens, UniProt P43490)
Assay: In Vitro Inhibition Assay

Nicotinamide phosphoribosyltransferase, sequence (P43490 whole entry): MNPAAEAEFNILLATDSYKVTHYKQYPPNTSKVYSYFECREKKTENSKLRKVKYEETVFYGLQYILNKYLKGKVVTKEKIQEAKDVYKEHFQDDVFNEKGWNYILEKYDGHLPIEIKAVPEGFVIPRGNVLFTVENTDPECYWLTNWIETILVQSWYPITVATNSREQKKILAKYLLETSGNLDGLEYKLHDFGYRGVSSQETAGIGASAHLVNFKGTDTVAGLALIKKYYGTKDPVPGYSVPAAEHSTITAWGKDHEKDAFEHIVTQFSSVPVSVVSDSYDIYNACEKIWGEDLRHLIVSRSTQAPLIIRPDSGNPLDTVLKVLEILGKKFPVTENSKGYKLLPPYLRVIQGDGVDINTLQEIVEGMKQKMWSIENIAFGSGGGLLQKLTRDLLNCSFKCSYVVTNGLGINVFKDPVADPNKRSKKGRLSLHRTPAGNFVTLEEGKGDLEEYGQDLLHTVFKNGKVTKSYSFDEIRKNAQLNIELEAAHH

IC50 [nM]	Compound
0.23	C#CCN(Cc1cc2c(=O)n(C)c(CN3CCN(C)CC3)nc2cc1Cl)c1ccc(C(=O)NCc2cccnc2)cc1
74	C#CCN(Cc1cc2c(=O)n(C)c(CN3CCN(C)CC3)nc2cc1Cl)c1ccc(C(=O)NCc2ccccn2)cc1 [MPI-0482593]
29	C#CCN(Cc1cc2c(=O)n(C)c(CN3CCN(CCN)CC3)nc2cc1Cl)c1ccc(C(=O)NCc2ccccn2)cc1 [MPI-0482594]

— BindingDB's records for doi:10.1016/j.chembiol.2010.05.008 (Kyowa Hakko Kogyo, 2010)
